The source of these data is PMC8252455, “Prediction of a clinically effective dose of THY1773, a novel V 1B receptor antagonist, based on preclinical data” (Biopharmaceutics & Drug Disposition, 2021).

Marks after values point to notes of the source that are not given here.

The nature of data set [1]: Blood-to-plasma ratio in human whole blood. The conditions noted are these: 1 μmol/L. The data set is classed as in vitro ADME. The procedure: The blood‐to‐plasma ratios of THY1773 were analyzed using pooled fresh whole blood (anticoagulant: EDTA‐2K) and control plasma separated from fresh whole blood in parallel from rats, dogs, and humans. Whole blood and control plasma containing 1 μmol/L THY1773 were incubated at 37°C for 30 min in a shaking water bath. The incubated whole blood was centrifuged at 2000 × g for 10 min at 4°C to obtain plasma. An aliquot of each plasma sample (i.e., isolated plasma from incubated whole blood and control plasma) was mixed with 8 volumes of acetonitrile/methanol (9:1, vol/vol) containing the IS. After centrifugation at 3974 × g for 10 min at 4°C, the supernatant was subjected to liquid chromatography/tandem mass spectrometry (LC‐MS/MS) analysis. The blood‐to‐plasma ratio was calculated by dividing the […].

The next data set deals with CYP3A. The data set is described as follows: Reaction phenotyping in HLMs with ketoconazole. The data set is classed as in vitro ADME, human. The procedure: Reaction phenotyping using cDNA expressed recombinant human CYP isoforms, CYP1A2, CYP2B6, CYP2C8, CYP2C9, CYP2C19, CYP2D6, and CYP3A4, was conducted. Each recombinant enzyme (100 pmol/ml) in potassium phosphate buffer (pH 7.4; 100 mmol/L for CYP3A4, 50 mmol/L for the others) was preincubated with [^3H]THY1773 (10 μmol/L) at 37°C for 5 min. The reactions were initiated by the addition of NADPH‐generating system (1 mmol/L NADP^+, 5 mmol/L G‐6‐P, 1 unit/ml G‐6‐PDH, and 5 mmol/L MgCl2) and incubated for 0 or 60 min. The reactions were terminated by the addition of an equal volume of acetonitrile/methanol (9:1, vol/vol), followed by centrifugation at 1650 × g for 10 min at 4°C. An aliquot of the supernatant was subjected to an Agilent 1200 HPLC system (Agilent Technologies, Inc.) equipped with a radiochemical flow detector (Radiomatic 625TR; Perkin Elmer, Inc.), and formation of metabolites was evaluated. […] The CLint was calculated by the method as described previously under metabolic stability in animal liver microsomes, and the fraction metabolized (fm) was calculated by Equation (1): (1) fm=1−(CLint, with inh/CLint) where CLint is intrinsic clearance without specific inhibitor and CLint,with inh is intrinsic clearance in the presence of specific inhibitor.

Data set [2] in a line: Prediction of human CLtotal (FCIM, two-species allometry, IVIVE). From the text: Of the many reported methods for the prediction of human CL, the top two methods reported by Ring et al. (2011) were selected based on prediction accuracy; that is, the unbound fraction corrected intercept method (FCIM) and two‐species‐based allometry (rat and dog) described by Equations (2) and (3), respectively (Tang, Hussain, Leal, Mayersohn, & Fluhler, 2007; Tang & Mayersohn, 2005): (2) CLhuman(mL/min/kg)=33.35×(a/Rfu)^0.77/Humanbodyweight(kg) (3) CL=a×(Humanbodyweight)^0.628 where the allometric coefficient (a) is obtained from the intercept of the simple allometry log–log plot between rats and dogs, and Rfu is the ratio of unbound fraction in plasma between rats and humans. Human body weight was assumed to be 70 kg. The hepatic CL (CLliver) was also predicted by physiologically based in vitro–in vivo extrapolation (IVIVE) method using physiological parameters listed in Table 1 based on the well stirred model (Yang, Jamei, Yeo, Rostami‐Hodjegan, & Tucker, 2007).
Since the CLliver was underestimated in rats and dogs from CLint in liver microsomes, the ratio of observed in vivo CLint and predicted CLint was calculated as the empirical scaling factor (ESF) for the extrapolation of CLliver from in vitro data. Human CLliver was predicted from CLint in HLMs with and without applying the average of ESF derived from rats and dogs. The total plasma clearance (CLtotal) was calculated by Equation (4): (4) CLtotal=QH×fu×(CLint/fu,mic)/QH+(fu/Rb)×(CLint/fu,mic)+CLrenal where QH is hepatic blood flow, fu is the free fraction in plasma, fu,mic is the fraction unbound in HLMs, Rb is blood‐to‐plasma ratio, and CLrenal is renal clearance. The fu,mic value was calculated using the Simcyp population based simulator (Version 16 R1; Simcyp Ltd.). The CLrenal was estimated by multiplying fu by glomerular filtration rate (GFR), assuming glomerular filtration only.
(§1) The fold error of the difference between observed and predicted human PK parameters was calculated by dividing the predicted value by the observed value.

A short description of the next data set: Prediction of human Vdss.
Excerpt: Human Vdss was also predicted by the two methods reported to be the best methods based on the prediction accuracy (Jones et al., 2011), which were Øie‐Tozer method (Obach et al., 1997) and rat–dog–human proportionality equation described (Wajima, Fukumura, Yano, & Oguma, 2003) by Equations (6) and (7), respectively: (6) Vdss[L/kg]=Vp×(1+RE/I)+Vp×fu×(Ve/Vp−RE/I)+Vr×fu/fu,t (7) log(Vdss,human)=0.07714×log(Vdss,rat)×log(Vdss,dog)+0.5147×log(Vdss,dog)+0.586 where fu,t is the fraction unbound in tissues, RE/I is the ratio of binding protein in the extracellular fluid to that in plasma, Ve, Vp, and Vr is the extracellular, plasma, and remaining fluid volume, respectively. Volumes and plasma protein levels were used as described by Obach et al. (1997).
as §1

Take `CC(C)NC(=O)Cn1c(-c2cccc(Cl)c2)nn(-c2ccc(CCN3CCOCC3)cc2)c1=O` [THY1773]: the Blood-to-plasma ratio result in data set [1] is recorded as “Theoretical limit (experimental data: 0.54)”. Moreover, the “fm (fraction metabolized)” value with CYP3A (by CYP3A, ketoconazole 1 μmol/L) is 0.914. The CLint in the data set with CYP3A (with ketoconazole 1 μmol/L, mean of duplicate) was 0.961 ^a μl/min/mg. The “Predicted human CLtotal” value is 1.07 mL/min/kg in data set [2] (FCIM); 1.06 mL/min/kg in data set [2] (IVIVE method with ESF); 0.25 mL/min/kg in data set [2] (IVIVE method without ESF); 3.73 mL/min/kg in data set [2] (Two species allometry (rat and dog)). Also, the “Predicted human Vdss” value was 1.38 L/kg in the data set “Prediction of human Vdss” (Rat–dog–human proportionality equation), 0.349 L/kg in the data set “Prediction of human Vdss” (Single species scaling (rat)) and 0.404 L/kg in the data set “Prediction of human Vdss” (Øie‐Tozer method).
